Data: ChEMBL document CHEMBL5625228, “Design, synthesis, and bioactivity evaluation of novel amide/sulfonamide derivatives as potential anti-inflammatory agents against acute lung injury and ulcerative colitis” (Eur J Med Chem, 2023)
The source made the active and inactive calls. The calls are words filed in the database; no cut-off is given here.

What was measured:
[1] = system: J774.A1; experiment: Antiinflammatory activity against mouse J774.A1 cells assessed as inhibition of LPS-induced IL-6 production pretreated with compound for 30 mins followed by LPS induction and measured after 24 hrs by ELISA analysis; type: functional; settings: for inhibition (INH): time 1470 min, 24.5 h; for inhibition: time 1470.0 min; on INH: test concentration or dose not given here
[2] = system: J774.A1; experiment: Antiinflammatory activity against mouse J774.A1 cells assessed as inhibition of LPS-induced TNF-alpha production pretreated with compound for 30 mins followed by LPS induction and measured after 24 hrs by ELISA analysis; type: functional; settings: for inhibition (INH): time 1470 min, 24.5 h; for inhibition: time 1470.0 min; on INH: test concentration or dose not given here
[3] = system: J774.A1; experiment: Antiinflammatory activity against mouse J774.A1 cells assessed as inhibition of LPS-induced IL-6 release preincubated with compound for 30 mins followed by LPS-induction and measured after 24 hrs by ELISA analysis; type: functional, cell-based
[4] = system: J774.A1; experiment: Antiinflammatory activity against mouse J774.A1 cells assessed as inhibition of LPS-induced TNF-alpha release preincubated with compound for 30 mins followed by LPS-induction and measured after 24 hrs by ELISA analysis; type: functional, cell-based
[5] = system: J774.A1; experiment: Antiinflammatory activity against LPS-induced mouse J774.A1 cells assessed as effect on IL-6 mRNA level preincubated with compound for 30 mins followed by LPS-induction and measured after 6 hrs by qPCR analysis; type: functional, cell-based; settings: time 390.0 min
[6] = system: J774.A1; experiment: Antiinflammatory activity against LPS-induced mouse J774.A1 cells assessed as downregulation of IL-6 mRNA level preincubated with compound for 30 mins followed by LPS-induction and measured after 6 hrs by qPCR analysis; type: functional, cell-based; settings: time 390.0 min
[7] = system: J774.A1; experiment: Antiinflammatory activity against LPS-induced mouse J774.A1 cells assessed as downregulation of TNF-alpha mRNA level preincubated with compound for 30 mins followed by LPS-induction and measured after 6 hrs by qPCR analysis; type: functional, cell-based; settings: time 390.0 min

Compound | inhibition (INH) [1] [%] | inhibition (INH) [2] [%] | also measured
O=[N+]([O-])c1ccc(N2CCN(CCS(=O)(=O)NCc3ccccn3)CC2)cc1 | 60.1 | 51.16 | –
COc1ccc(NS(=O)(=O)CCN2CCN(c3ccc([N+](=O)[O-])cc3)CC2)cn1 | 54.03 | 47.01 | –
O=S(=O)(CCN1CCN(Cc2ccccc2)CC1)Nc1ccc2ncccc2c1 | 43.09 | 9.54 | –
COc1ccc(NC(=O)CN2CCN(c3ccc([N+](=O)[O-])cc3)CC2)cn1 | 26.57 | 35.31 | –
O=C(CCN1CCN(Cc2ccc([N+](=O)[O-])cc2)CC1)NCc1ccccn1 | 36.81 | 25.79 | –
O=[N+]([O-])c1ccc(N2CCN(CCS(=O)(=O)Nc3cccc4ccccc34)CC2)cc1 | 54.08 | 48.59 | –
O=C(CN1CCN(c2ccc([N+](=O)[O-])cc2)CC1)Nc1cccc2ccccc12 | 17.67 | 17.43 | –
COc1ccc(NS(=O)(=O)CCN2CCN(Cc3ccccc3)CC2)cn1 | 13.57 | 16.24 | –
COc1ccc(CN2CCN(CCS(=O)(=O)Nc3ccc(OC)nc3)CC2)cc1 | 55.78 | 39.86 | –
O=[N+]([O-])c1cccc(CN2CCN(CCS(=O)(=O)Nc3ccc4ncccc4c3)CC2)c1 | 54.36 | 23.97 | –
O=C(CN1CCN(Cc2cccc([N+](=O)[O-])c2)CC1)NCc1ccccn1 | 21.88 | 39.82 | –
COc1ccc(NS(=O)(=O)CCN2CCN(c3ncccn3)CC2)cn1 | 42 | 37.77 | –
COc1ccc(CN2CCN(CC(=O)Nc3cccc4ccccc34)CC2)cc1 | – | – | inhibition [1]: inactive; inhibition [2]: inactive
O=C(CN1CCN(Cc2cccc([N+](=O)[O-])c2)CC1)Nc1cccc2ccccc12 | 36.57 | 49.62 | –
O=[N+]([O-])c1cc(S(=O)(=O)NCc2ccccn2)ccc1N1CCN(c2ncccn2)CC1 | 20.86 | 18.24 | –
O=[N+]([O-])c1ccc(CN2CCN(CCS(=O)(=O)Nc3cccc4ccccc34)CC2)cc1 | 51.66 | 52.22 | –
COc1ccc(NC(=O)CN2CCN(c3ncccn3)CC2)cn1 | 33.21 | 47.96 | –
COc1cc(-c2csc(NC(=O)CCN3CCN(Cc4cccc([N+](=O)[O-])c4)CC3)n2)ccc1O | 78.47 | 41.39 | –
O=C(CCN1CCN(Cc2ccccc2)CC1)Nc1cccc2ccccc12 | 50.93 | 55.28 | –
O=C(CCN1CCN(c2ccc([N+](=O)[O-])cc2)CC1)Nc1cccc2ccccc12 | – | – | inhibition [1]: inactive; inhibition [2]: inactive

Compound | inhibition (INH) [1] [%] | inhibition (INH) [2] [%] | also measured
COc1ccc(NS(=O)(=O)CCN2CCN(Cc3ccc([N+](=O)[O-])cc3)CC2)cn1 | 42.48 | 38.83 | –
CC(=O)Nc1ncc(CN2CCN(c3ccc(S(=O)(=O)NCc4ccccn4)cc3[N+](=O)[O-])CC2)s1 | 40.3 | 31.13 | –
CC(=O)Nc1ncc(CN2CCN(CC(=O)NCc3ccccn3)CC2)s1 | 19.68 | 36.32 | –
O=[N+]([O-])c1ccc(CN2CCN(CCS(=O)(=O)NCc3ccccn3)CC2)cc1 | 49.16 | 41.37 | –
O=[N+]([O-])c1cccc(CN2CCN(CCS(=O)(=O)NCc3ccccn3)CC2)c1 | 41.05 | 38.96 | –
O=C(CN1CCN(c2ccc([N+](=O)[O-])cc2)CC1)Nc1ccccn1 | 54.4 | 41.4 | –
COc1ccc(CN2CCN(CCS(=O)(=O)Nc3ccc4ncccc4c3)CC2)cc1 | 50.52 | 31.97 | –
COc1ccc(CN2CCN(CCS(=O)(=O)NCc3ccccn3)CC2)cc1 | 44.03 | 35.94 | –
COc1ccc(CN2CCN(CCS(=O)(=O)Nc3cccc4ccccc34)CC2)cc1 | 46.54 | 38.07 | –
O=C(CN1CCN(Cc2ccc([N+](=O)[O-])cc2)CC1)NCc1ccccn1 | 36.43 | 42.8 | –
COc1ccc(NC(=O)CN2CCN(Cc3cccc([N+](=O)[O-])c3)CC2)cn1 | 20.88 | 41.2 | –
O=S(=O)(CCN1CCN(Cc2ccccc2)CC1)NCc1ccccn1 | 54.87 | 43.92 | –
O=C(CCN1CCN(c2ccc([N+](=O)[O-])cc2)CC1)NCc1ccccn1 | 19.64 | 20.88 | –
COc1ccc(NC(=O)CN2CCN(Cc3cnc(NC(C)=O)s3)CC2)cn1 | 47.13 | 53.08 | –
O=S(=O)(CCN1CCN(c2ncccn2)CC1)Nc1cccc2ccccc12 | 10.6 | 12.33 | –
O=[N+]([O-])c1cccc(CN2CCN(c3ccc(S(=O)(=O)NCc4ccccn4)cc3[N+](=O)[O-])CC2)c1 | 71.33 | 43.51 | IC50 [3]: 1.38 µM; IC50 [4]: 3.99 µM; Activity [5]: inactive
COc1ccc(CN2CCN(CC(=O)Nc3ccc(OC)nc3)CC2)cc1 | 19.35 | 38.65 | –
O=C(CN1CCN(Cc2ccc([N+](=O)[O-])cc2)CC1)Nc1cccc2ccccc12 | 51.42 | 44.12 | –
O=C(CN1CCN(Cc2ccccc2)CC1)Nc1cccc2ccccc12 | 37.08 | 40.65 | –
CC(=O)Nc1ncc(CN2CCN(CCS(=O)(=O)Nc3cccc4ccccc34)CC2)s1 | 43.92 | 25.56 | –

Compound | inhibition (INH) [1] [%] | inhibition (INH) [2] [%] | also measured
O=[N+]([O-])c1ccc(CN2CCN(c3ccc(S(=O)(=O)NCc4ccccn4)cc3[N+](=O)[O-])CC2)cc1 | 69.93 | 42.19 | IC50 [3]: 1.32 µM; Activity [6]: Active; IC50 [4]: 8.59 µM; Activity [7]: Active
COc1ccc(NS(=O)(=O)CCN2CCN(Cc3cccc([N+](=O)[O-])c3)CC2)cn1 | 30.6 | 34.88 | –
O=S(=O)(CCN1CCN(Cc2ccccc2)CC1)Nc1cccc2ccccc12 | 36.45 | 38.58 | –
O=[N+]([O-])c1cccc(CN2CCN(CCS(=O)(=O)Nc3cccc4ccccc34)CC2)c1 | 39.74 | 48.04 | –
O=C(CN1CCN(c2ncccn2)CC1)Nc1cccc2ccccc12 | 9.078 | 18.5 | –
O=C(CN1CCN(Cc2ccccc2)CC1)NCc1ccccn1 | 23.3 | 40.91 | –
O=[N+]([O-])c1ccc(N2CCN(CCS(=O)(=O)Nc3ccc4ncccc4c3)CC2)cc1 | 63.27 | 41.31 | –
COc1ccc(CN2CCN(c3ccc(S(=O)(=O)NCc4ccccn4)cc3[N+](=O)[O-])CC2)cc1 | 53.8 | 18.06 | –
COc1ccc(CN2CCN(CC(=O)NCc3ccccn3)CC2)cc1 | 3.21 | 38.64 | –
O=[N+]([O-])c1ccc(CN2CCN(CCS(=O)(=O)Nc3ccc4ncccc4c3)CC2)cc1 | 58.07 | 24.49 | –
O=S(=O)(CCN1CCN(c2ncccn2)CC1)NCc1ccccn1 | 50.45 | 40.39 | –
O=C(CCN1CCN(Cc2ccccc2)CC1)NCc1ccccn1 | 31 | 40.52 | –
COc1ccc(NC(=O)CN2CCN(Cc3ccc([N+](=O)[O-])cc3)CC2)cn1 | 35.43 | 37.85 | –
COc1ccc(NC(=O)CN2CCN(Cc3ccccc3)CC2)cn1 | 9.69 | 34.1 | –
O=C(CN1CCN(c2ccc([N+](=O)[O-])cc2)CC1)NCc1ccccn1 | 49.31 | 57.51 | –
O=S(=O)(CCN1CCN(c2ncccn2)CC1)Nc1ccc2ncccc2c1 | 23.7 | 5.34 | –
O=C(CN1CCN(c2ncccn2)CC1)NCc1ccccn1 | 40.7 | 38.32 | –
O=[N+]([O-])c1cc(S(=O)(=O)NCc2ccccn2)ccc1N1CCN(Cc2ccccc2)CC1 | 69.3 | 50.22 | IC50 [3]: 4.94 µM; IC50 [4]: 10.1 µM; Activity [5]: inactive
